Laboratory results: patent US4440757A, “Pharmaceutical composition comprising derivative of aminobenzoic acid for regulating prostaglandin” (priority 1978, dated 1984)

Experiments:
[1] = system: lymphocytes from the spleen of a BALB/C mouse; assay: PGs metabolism of 3H-arachidonic acid taken into lymphocytes; format: cell-based; set-up: key: -: no change was observed; ±: change was slightly observed; +: change was clearly observed; conditions: 500 μg/ml, 37° C., 60 min
Method: After adjusting the lymphocytes taken from the spleen of a BALB/C mouse to a concentration of 1×10^7 cells/ml, 2 μCi of ^3 H-arachidonic acid was added and the mixture was incubated at a temperature of 37° C. for 90 min. The incubated lymphocytes were washed three times with the culture medium. After again ajusting the cells to a concentration of 1×10^7 cells per ml, the culture were poured into four siliconized test tubes in an amount of 2 ml/tube. Two test tubes were used as control, and into each of the remaining two test tubes, 500 μg of the present substance, in this Example, Specimen No. 7 was added, and then the four test tubes were incubated at 37° C. for 60 min. After incubation, the test tubes were centrifugated at 0° C. for 5 min. at 1,200 rpm.
The thus obtained pellets of cells were taken into a vial containing 2 ml of the culture medium and after adding 5 ml of petroleum ether, the vial was shaken and the ether layer was removed, the remaining aqueous layer being adjusted to pH of 3.5 by aqueous 0.5 N hydrochloric acid solution.
The aqueous acidic solution was extracted three times with each 5 ml of ether, and the ether extract was dried to solid. The solid material was subjected to esterification by a solution of diazomethane. The esterified reaction mixture was subjected to thin-layer chromatography and was developed with a 90:50:20:100 (by volume) mixed solvent of ethyl acetate:iso-octane:acetic acid:water. The identification of the thus appeared spots on the chromatogram was carried out by using the following authentic specimens of PGD2, PGE2, PGF2-α and 6-keto-PGF1-α. The silicagel layer of the separated chlomatogram was scraped out and dissolved into a liquid for the liquid scintillator to be counted. From the change of the counts the change of PGS was determined.

[2] = system: sarcoma 180 tumour cells, cyclic AMP; assay: Level of cyclic AMP in tumour cells of sarcoma 180; format: cell-based, mouse; conditions: room temperature, 5 min
Method: The present substance was added to 100 μl of the ascites-type tumour taken from the abdominal cavity of sarcoma 180-bearing mice to be a predetermined concentration, in this case, Specimen No. 7, and the mixture was incubated at room temperature for 5 min. After incubation, the culture was boiled, homogenized and centrifugated to obtain a supernatant liquid. The thus obtained supernatant liquid was subjected to the determination of cyclic AMP by the method of Gilman. […] The participation of the present substance in the metabolism of PGs is presumed also from this fact.

[3] = system: Ehrlich cancer cells; assay: PGE in Ehrlich tumour tissue and tumour proliferation (i.p.); format: in vivo, female C57BL/6 mouse; conditions: 100 mg/kg i.p. every other day, 14th day
Method: Ehrlich cancer cells were transplanted subcutaneously to groups of female C57BL/6 mouse after 9 weeks of birth at a rate of 1×10^6 and while feeding the mice, the present substance, Specimen No. 7, was intraperitoneally administered to the mice every other day from the next day of the transplantation at a rate of 100 mg/kg. On 14th day of the transplantation, the mice were sacrificed with ether to extirpate the tumor tissue. After homogenizing the tumour tissue finely cut by scissors with the addition of 7 ml of methanol per gram of the tumour tissue at a temperature of 0° C., the homogenate was filtered with filter paper to obtain a filtrate. After adding 2 times by volume of chloroform to the filtrate, the mixture was well mixed and left for 30 min at 4° C. Then, the cooled mixture was subjected to the same procedures as in Example 11 to determine the content of PGE in the tumour tissue. The content of PGE in the tumour tissue was larger in the animal transplanted with the cancer cells and administered with the present substance than in the control transplanted with the same cancer cells but not administered with the present substance. This face gives an information concerning the participation of the present substance in the metabolism of PGs.

[4] = system: Adenocarcinoma 755; assay: PGE in tumour of adenocarcinoma 755 and its proliferation; format: in vivo, female C57BL/6 mouse; conditions: 1 g/kg/day oral
Method: Tumour cells of Adenocarcinoma 755 were transplanted subcutaneously to groups of female C57BL/6 mouse of after 8 weeks of birth and while feeding the mice, the present substance, Specimen No. 7, was orally administered every day from the next day of transplantation at a rate of 1 g/kg/day. The mice were sacrificed with ether on 7th or 14th day of transplantation to extirpate the tumour. The thus extirpated tumour was treated by the same procedures as in Example 11 to determine the content of PGE in the tumour.

[5] = system: Sato's lung cancer; assay: Translocation of dye-staff to Sato's lung cancer; format: in vivo, donryu rat; conditions: 1000 mg/kg p.o. once; control 30.0
Method: On the back of a donryu rat, a lump of Sato's lung cancer of 5 mm in size was subcutaneously transplanted.
(§1) On the axillary part of an ICR mouse, 10^6 cells of sarcoma 180 were subcutaneously transplanted. While feeding the both animals, the present substance, Specimen No. 7, was forcibly administered orally once at a rate of 1000 mg/kg on 16th day of the transplantation and an aqueous 2% solution of Lissamine Green (a dye-staff manufactured by Imperial Chem. Ind. Co.) was injected into the caudal vein of the animal at a rate of 1 ml for a rat and 0.5 ml for a mouse.
(§2) After one hour of the injection, the animal was sacrificed to extirpate the proliferated tumour. The tumour of the rat was finely cut and homogenized with an aqueous 50% solution of ethanol. After diluting the homogenate with an addition of the solution to a total volume of 50 ml, the liquid was centrifugated for 15 min at 1000 rpm to separate the supernatant liquid. The content of the dye-staff was determined on the supernatant liquid itself or after dilution by spectrophotometry using its absorption maximum of 630 nm.

[6] = system: sarcoma 180; assay: Translocation of dye-staff to sarcoma 180 (visual); format: in vivo, ICR mouse; conditions: 1000 mg/kg p.o. once
Method: as §1, §2

In the case of O=C(O)c1ccc(NC2OC[C@@H](O)[C@H](O)[C@H]2O)cc1 (stereo partly drawn) [Specimen No. 7, Sodium p-aminobenzoate-N--D-xyloside], the “Change of 6-keto-PGF1-α” value [1] is reported as “±”, the “Change of PGD2” value [1] is reported as “+” and the “Change of PGE2” value [1] is reported as “+”. For the same molecule, the “Change of PGF2-α” value [1] was “±”, the “level of cyclic AMP in tumour cells (FIG. 10)” value [2] was “raising the level of cyclic AMP in the tumour cells of sarcoma 180” and the “Weight of tumour tissue” value ([3]; control 1.30) was 0.75 g. For the same molecule, the “Content of PGE in the tumour tissue” value ([3]; control 1.77) was 3.98 ng/g, the “Content of PGE in tumour” value ([4]; 7th day, control 0.67) was 2.83 ng/g and the Weight of tumour ([4]; 7th day, control 1.34) was 1.04 g. The “Content of PGE in tumour” value ([4]; 14th day, control 0.34) was 1.15 ng/g, the Weight of tumour ([4]; 14th day, control 4.01) was 3.10 g and the Amount of dye-staff [5] was 51.0 μg/g tumour. The “sedimentation of the dye-staff in the central part of the tumour (visual)” value [6] was “remarkable sedimentation of the dye-staff in the central part of the tumour”.
